Measurements published in PubChem BioAssay (NCI).
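A five-concentration, 48-hour dose response in 96-well plates underlies each endpoint, interpolated linearly between surrounding concentrations. TGI marks complete inhibition of growth.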

Tests used:
Experiment in all cases: inhibition of tumour cell growth, NCI panel, 48 h
MCF7 breast = system: MCF7 breast
A549 NSCLC = system: A549 NSCLC
MDA-MB-435 = system: MDA-MB-435
NCI/ADR-RES ovarian = system: NCI/ADR-RES ovarian
DU-145 prostate = system: DU-145 prostate
786-0 renal = system: 786-0 renal
SK-MEL-28 melanoma = system: SK-MEL-28 melanoma
SNB-19 CNS = system: SNB-19 CNS
HCT-116 colon = system: HCT-116 colon
U251 CNS = system: U251 CNS
SW-620 colon = system: SW-620 colon
MOLT-4 leukemia = system: MOLT-4 leukemia
HOP-62 NSCLC = system: HOP-62 NSCLC
SK-MEL-2 melanoma = system: SK-MEL-2 melanoma
M14 melanoma = system: M14 melanoma
SF-295 CNS = system: SF-295 CNS
SR leukemia = system: SR leukemia
BT-549 breast = system: BT-549 breast
RPMI-8226 leukemia = system: RPMI-8226 leukemia
SNB-75 CNS = system: SNB-75 CNS
HCT-15 colon = system: HCT-15 colon
HT29 colon = system: HT29 colon
HL-60(TB) leukemia = system: HL-60(TB) leukemia
MDA-N = system: MDA-N
UACC-257 melanoma = system: UACC-257 melanoma
UACC-62 melanoma = system: UACC-62 melanoma
CAKI-1 renal = system: CAKI-1 renal
NCI-H226 lung = system: NCI-H226 lung
LOX IMVI melanoma = system: LOX IMVI melanoma
COLO 205 colon = system: COLO 205 colon
SK-MEL-5 melanoma = system: SK-MEL-5 melanoma
SK-OV-3 ovarian = system: SK-OV-3 ovarian
ACHN renal = system: ACHN renal
EKVX NSCLC = system: EKVX NSCLC
IGROV1 ovarian = system: IGROV1 ovarian
OVCAR-4 ovarian = system: OVCAR-4 ovarian
HS 578T breast = system: HS 578T breast
HOP-92 NSCLC = system: HOP-92 NSCLC
NCI-H23 lung = system: NCI-H23 lung
T-47D breast = system: T-47D breast
CCRF-CEM leukemia = system: CCRF-CEM leukemia
KM12 colon = system: KM12 colon
SN12C renal = system: SN12C renal
MALME-3M melanoma = system: MALME-3M melanoma
K-562 leukemia = system: K-562 leukemia
UO-31 renal = system: UO-31 renal
OVCAR-5 ovarian = system: OVCAR-5 ovarian
SF-268 CNS = system: SF-268 CNS
OVCAR-8 ovarian = system: OVCAR-8 ovarian
NCI-H460 lung = system: NCI-H460 lung
NCI-H522 lung = system: NCI-H522 lung
OVCAR-3 ovarian = system: OVCAR-3 ovarian
TK-10 renal = system: TK-10 renal
PC-3 prostate = system: PC-3 prostate

Measured: TGI

Cc1ccc(S(=O)(=O)N/N=C2/C3CCC(C3)C2c2ccccc2)cc1 (centres undefined)
> 100 µM: all assays above
